Test results as given in patent publication US20230175072A1, “3 FLAP OKAZAKI FRAGMENTS AND USES THEREOF” (City of Hope, priority 2021, published 2023).
“Also recorded” adds a separate entry of the source. Read-outs that look alike come from different tables or passages of the source.

What was measured:
yeast cells [1] = conditions: rad27Δ cells; cited from earlier work
yeast cells [2] = assay: MMS sensitivity spot assay; format: cell-based, Saccharomyces cerevisiae; conditions: YPD plates, 30° C., 48 h
Description: FIG. 6. pol3 ITD-bearing rad27Δ revertant mutations or pol3 ITD knock-in of rad27Δ cells partially reverses MMS-induced lethality. Viability of WT, pol3 ITD knock-in, rad27Δ, rad27Δ with the pol3 ITD knock-in mutation, and a rad27Δ revertant carrying a pol3 ITD mutation was analyzed using spot assays. Yeast cells of the indicated genetic backgrounds were serially diluted and spotted on YPD plates containing the indicated level of MMS. The plates were incubated at 30° C. for 48 hours.
To assay the MMS sensitivity of different yeast strains, 0.005%, 0.01%, 0.015% or 0.02% MMS was added to YPD plates after autoclaving, and plates were used the same day. Yeast cells were serially diluted and spotted on YPD plates containing different levels of MMS. The plates were incubated at 30° C. for 48 h.

Chk1 = target: T1, Chk1 (Mus musculus, UniProt O35280); assay: Chk1 inhibition and lung cancer development in FEN1 FFAA mutant mice; format: in vivo; conditions: 0.025 mg/kg intraperitoneal once per week for four weeks from 6 months, lung tumors assessed at 16 months, vs DMSO
T1 construct: from tissue; host or cells: live mice (129S1 background), WT and FEN1 WT/FFAA heterozygotes
T1 sequence (O35280 1-476): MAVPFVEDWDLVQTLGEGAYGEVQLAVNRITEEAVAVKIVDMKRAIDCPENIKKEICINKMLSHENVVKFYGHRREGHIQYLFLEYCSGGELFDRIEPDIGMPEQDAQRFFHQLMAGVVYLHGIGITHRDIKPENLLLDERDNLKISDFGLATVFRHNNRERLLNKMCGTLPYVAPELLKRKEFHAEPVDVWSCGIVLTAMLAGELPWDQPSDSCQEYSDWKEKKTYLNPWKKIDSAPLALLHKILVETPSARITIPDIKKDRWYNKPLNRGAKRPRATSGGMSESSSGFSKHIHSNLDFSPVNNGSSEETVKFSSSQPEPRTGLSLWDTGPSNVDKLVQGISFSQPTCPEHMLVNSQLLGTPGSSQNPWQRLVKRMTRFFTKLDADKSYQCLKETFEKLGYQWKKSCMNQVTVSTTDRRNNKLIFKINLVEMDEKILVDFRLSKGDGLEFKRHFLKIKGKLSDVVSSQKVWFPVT
Source text: FEN1 F343A/F344A (FFAA) heterozygous mice (WT/FFAA, 129S1 genetic background), which develop lung adenoma or adenocarcinoma at a high frequency (32), were in-line bred and housed in the Animal Resource Center at City of Hope. All experimental protocols involving animals were approved by the Institutional Animal Care and Use Committee of City of Hope in compliance with the Public Health Service policies of the United States. To determine the extent to which inhibiting Chk1 suppressed cancer development in FEN1 FFAA mutant mice, randomly selected WT or WT/FFAA male or female mice (6 months old) were treated with 0.025 mg/kg body weight SB218078 (Chk1 inhibitor) in DMSO via intraperitoneal injection once per week for four weeks. Untreated control mice were injected with the same volume of DMSO (vehicle). All mice were euthanized at 16 months of age. The presence of lung tumors was determined using anatomic and histopathological analysis in blinding fashion. For whole exome sequencing (WES) studies, WT or FEN1 A159V/WT mice (33) were euthanized at 16 months, and normal lung or lung tumors were dissected for total genomic DNA extraction and purification.
Two-tailed student's t-test was used to determine significance in differences in mutation rate assays and the hypergeometric test was used to determine the significance in the enrichment of a signaling pathway. […]

Row | SMILES | MMS sensitivity of yeast cells (yeast cells [1]) | MMS sensitivity of yeast cells (yeast cells [2]; pol3 ITD cells in a WT RAD27 background, high concentrations of MMS) | MMS sensitivity of yeast cells (yeast cells [2]; rad27Δ revertant cells and rad27Δ pol3 ITD knock-in mutant cells, higher concentrations (≥0.01%) MMS) | MMS sensitivity of yeast cells (yeast cells [2]; rad27Δ revertant cells and rad27Δ pol3 ITD knock-in mutant cells, low concentration (0.005%) MMS) | spontaneous lung cancer development (Chk1; WT mice) | spontaneous lung cancer development (Chk1; WT/FFAA (FEN1 F343A/F344A heterozygous) mice, 0.025 mg/kg)
1 | COS(C)(=O)=O [MMS, methyl methanesulfonate] | sensitive | sensitive | sensitive | resistant |  | 
2 | O=C1NC(=O)c2c1c1c3ccccc3n3c1c1c2c2ccccc2n1C1CCC3O1 [SB218078] |  |  |  |  | not in WT mice | significantly inhibited spontaneous lung cancer development; also recorded: blocks lung cancer development
